# Measurements reported in US12350270B2, “Antimalarial agents” (Merck Sharp & Dohme LLC, priority 2019, dated 2025).
# Test system: parasites (ring stage, in human red blood cell culture)
# Assay: Parasite LDH growth assay (antiparasite potency, Parasite Assay)
# Assay type: cell-based, Plasmodium falciparum
# Details: 0.7% rings, 2% haematocrit, 72 hours at 37° C., LDH readout of parasite growth
# Summary of the method: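 Ring-stage parasites at 0.7% parasitemia and 2% haematocrit, in RPMI-Hepes/bicarbonate with 5% heat-inactivated human serum and 0.5% albumax, were added to compound-containing medium. Cultures grew 72 h at 37 °C in gassed humidified boxes. Plates were then frozen overnight at −80 °C, thawed 4 h, and growth was measured by LDH assay.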
row,Structure (SMILES),EC50 [nM]
1,"CCC1(CC)CC(=O)N([C@@H]2CCOc3ccc(C(=O)NC4c5ccc(OC)cc5OCC4(C)O)cc32)C(=N)N1 (single isomer, unassigned) [Example 258A]",85.9
2,"CCC1(CC)CC(=O)N([C@@H]2CCOc3ccc(C(=O)N[C@@H]4c5ccccc5CC4(C)O)cc32)C(=N)N1 (single isomer, unassigned) [Example 44B]",2.8

# Same assay, conditions: Plasmodium falciparum, Erythrocyte, 72 h, 0.7% rings, 2% haematocrit, 72 hours at 37° C., LDH readout of parasite growth
row,Structure (SMILES),EC50 [nM]
1,"CCC1(CC)C[C@@H](N2C(=N)NC(C)(C)CC2=O)c2cc(C(=O)N[C@@H]3c4ccccc4C[C@H]3O)ccc2O1 [Example 51A, (R)-2,2-diethyl-N-((1R,2R)-2-hydroxy-2,3-dihydro-1H-inden-l-yl)-4-(2-imino-4,4-dimethyl-6-oxotetrahydropyrimidin-1(2H)-yl)chromane-6-carboxamide]",22.5
2,"CCC1(CC)CC(=O)N([C@@H]2CCOc3ccc(C(=O)N[C@@H]4c5ccccc5C5(CC5)[C@H]4O)cc32)C(=N)N1 [Example 154, (4R)-4-(4,4-diethyl-2-imino-6-oxo-hexahydropyrimidin-1-yl)-N-[(1′R,2′R)-2′-hydroxyspiro[cyclopropane-1,3′-indane]-1′-yl]chromane-6-carboxamide]",0.7
3,"CC1(C)CC(=O)N(C2CC(C)(C)c3ccc(C(=O)N[C@@H]4c5ccccc5C[C@H]4O)cc32)C(=N)N1 (stereo partly drawn) [Example 86, N-[(1R,2R)-2-hydroxyindan-1-yl]-3-(2-imino-4,4-dimethyl-6-oxo-hexahydropyrimidin-1-yl)-1,1-dimethyl-indane-5-carboxamide]",87.8
4,"CCC1(CC)CC(=O)N([C@@H]2C[C@@H](OC)c3ccc(C(=O)N[C@@H]4c5ccccc5C[C@H]4O)cc32)C(=N)N1 [Example 115, (1R,3R)-3-(4,4-diethyl-2-imino-6-oxo-hexahydropyrimidin-1-yl)-N-[(1R,2R)-2-hydroxyindan-1-yl]-1-methoxy-indane-5-carboxamide]",3.6
5,"CCC1(CC)CC(=O)N([C@@H]2CCS(=O)(=O)c3ccc(C(=O)N[C@@H]4c5ccccc5OC(C)(C)[C@H]4O)cc32)C(=N)N1 [Example 71A, (R)-4-(4,4-diethyl-2-imino-6-oxotetrahydropyrimidin-1(2H)-yl)-N-((3S,4R)-3-hydroxy-2,2-dimethylchroman-4-yl)thiochromane-6-carboxamide 1,1-dioxide]",3.5
6,"CCC1(CC)CC(=O)N([C@@H]2CCCc3ccc(C(=O)N[C@@H]4c5ccccc5C[C@H]4O)cc32)C(=N)N1 [Example 94, (4R)-4-(4,4-diethyl-2-imino-6-oxo-hexahydropyrimidin-1-yl)-N-[(1R,2R)-2-hydroxyindan-1-yl]tetralin-6-carboxamide]",1.9
7,"CCC1(CC)CC(=O)N([C@@H]2CCOc3ccc(C(=O)N[C@@H]4c5cc(C#N)ccc5OC(C)(C)[C@H]4O)cc32)C(=N)N1 [Example 20A, (R)-N-((3S,4R)-6-cyano-3-hydroxy-2,2-dimethylchroman-4-yl)-4-(4,4-diethyl-2-imino-6-oxotetrahydropyrimidin-1(2H)-yl)chromane-6-carboxamide]",0.8
8,"CC1(C)CC(=O)N(C2c3cc(C(=O)N[C@@H]4c5ccccc5C[C@@]4(C)O)ccc3OC2(C)C)C(=N)N1 (stereo partly drawn) [Example 107, N-[(1R,2R)-2-hydroxy-2-methyl-indan-1-yl]-3-(2-imino-4,4-dimethyl-6-oxo-hexahydropyrimidin-1-yl)-2,2-dimethyl-3H-benzofuran-5-carboxamide]",222
9,"CCC1(CC)CC(=O)N([C@@H]2C[C@@H](OC)c3ccc(C(=O)N[C@@H]4c5ccccc5C[C@@]4(C)O)cc32)C(=N)N1 [Example 157, (1R,3R)-3-(4,4-diethyl-2-imino-6-oxo-hexahydropyrimidin-1-yl)-N-[(1R,2R)-2-hydroxy-2-methyl-indan-1-yl]-1-methoxy-indane-5-carboxamide]",19.9
10,"CCC1(CC)CC(=O)N([C@@H]2CCOc3ccc(C(=O)N[C@@H]4CC(C)(C)Oc5ccc(F)cc54)cc32)C(=N)N1 [Example 7B, (R)-4-(4,4-diethyl-2-imino-6-oxotetrahydropyrimidin-1(2H)-yl)-N-((R)-6-fluoro-2,2-dimethylchroman-4-yl)chromane-6-carboxamide]",19
